“Also recorded” adds a separate entry of the source.
Tests used:
mice = details: cited from earlier work
rats = details: cited from earlier work
humans = details: lorazepam 3×1 mg daily; buspirone 3×5 mg daily; cited from earlier work
Wistar rats = assay: Elevated plus-maze test of anxiety; assay type: in vivo, rat; details: FIG. 2
Procedure: For laboratory studies, we used an ethyl alcoholic Echinacea purpurea root tincture prepared by FitoChem Ltd. (H-2200 Monor, 14 Kossuth Str, ww.fitochem.hu), on the 21st of February, 2006 (Lot number FECH-010011205; analytical ID: 052/06). The dry residue was 1.7% w/w, whereas the lead content was less than 10 μg/g. Microbiological analysis provided satisfactory results (e.g. the total plate count was less than 1000 CFU/g). The extract containing 70% ethyl alcohol was stored at room temperature (validity date under these conditions: March, 2007), and used in experiments in April-May, 2006. Before use, ethyl alcohol was evaporated in vacuum at 4° C. by means of a Speed Vac Concentrator (Savant Instruments Inc., Farmingdale, USA). […] The dose was expressed as mg dry residue/kg body weight. […]
This test was described first by Pellow et al. (1984), and later became one of the most popular anxiety tests, frequently used for the identification of putative anxiolytics. […] To avoid confounds with anxiety, the locomotor effects of compounds are evaluated based on closed arm entries (Hogg, 1996).
The elevated plus-maze (arm length 50 cm, arm width 17 cm; wall height 30 cm; platform height 80 cm) was made of dark grey painted wood, and lit by 4 white lamps of 40 W each (approximately 200 lx). […] Behaviors were scored by experimenters blind to treatment conditions by means of a computer based event recorder. […]

Compound	effect on anxiety in mice (mice)	time to significant effects over placebo on State-Trait Anxiety Inventory scores (humans)	treatment time to State-Trait anxiety scores lower than 45 (humans)	also measured
Cc1c(C(=O)NN2CCCCC2)nn(-c2ccc(Cl)cc2Cl)c1-c1ccc(I)cc1 [AM-251]	anxiogenic	–	–	–
Cc1c(C(=O)NN2CCCCC2)nn(-c2ccc(Cl)cc2Cl)c1-c1ccc(Cl)cc1 [SR-141716A]	anxiolytic	–	–	effect on anxiety in rats (rats): anxiogenic
O=C1CC2(CCCC2)CC(=O)N1CCCCN1CCN(c2ncccn2)CC1 [buspirone]	–	3 weeks	6 weeks	–
CNC1=Nc2ccc(Cl)cc2C(c2ccccc2)=[N+]([O-])C1 [chlordiazepoxide]	–	–	–	locomotor behavior (closed arm entries) / sedation (Wistar rats): highly sedative at higher doses; also recorded: significant locomotor suppression
O=C1Nc2ccc(Cl)cc2C(c2ccccc2Cl)=NC1O (centres unmarked) [lorazepam]	–	one week	three weeks	–

From US8206762B2, “Use of Echinacea or preparations thereof in compositions for the treatment of anxiety” (priority 2006, dated 2012)
